Experimental data taken from ChEMBL document CHEMBL1136587, “Optimisation of aryl substitution leading to potent methionyl tRNA synthetase inhibitors with excellent gram-positive antibacterial activity” (Bioorg Med Chem Lett, 2003).
Converted amounts (≈) assume the structure as drawn.

How the values were obtained:
Enterococcus faecalis = experiment: In vitro Antibacterial activity of compound against Enterococcus faecalis 1; type: functional
Staphylococcus aureus [1] = experiment: In vitro Antibacterial activity of compound against Staphylococcus aureus Oxford; type: functional
[2] = target: Methionine--tRNA ligase (Enterococcus faecalis (strain ATCC 700802 / V583)) (UniProt Q837B3); experiment: In vitro Antibacterial activity of compound against Enterococcus faecalis; type: functional
Enterococcus faecium = experiment: In vitro Antibacterial activity of compound against Enterococcus faecium
Staphylococcus aureus [3] = experiment: In vitro Antibacterial activity of compound against Staphylococcus aureus
[4] = system: Staphylococcus epidermidis; experiment: In vitro Antibacterial activity of compound against Staphylococcus epidermidis
[5] = target: Methionine--tRNA ligase (Enterococcus faecalis (strain ATCC 700802 / V583)) (UniProt Q837B3); experiment: In vitro Antibacterial activity of compound against Enterococcus faecalis 7; type: functional

Chain of Methionine--tRNA ligase (Enterococcus faecalis (strain ATCC 700802 / V583)) (Q837B3 whole entry): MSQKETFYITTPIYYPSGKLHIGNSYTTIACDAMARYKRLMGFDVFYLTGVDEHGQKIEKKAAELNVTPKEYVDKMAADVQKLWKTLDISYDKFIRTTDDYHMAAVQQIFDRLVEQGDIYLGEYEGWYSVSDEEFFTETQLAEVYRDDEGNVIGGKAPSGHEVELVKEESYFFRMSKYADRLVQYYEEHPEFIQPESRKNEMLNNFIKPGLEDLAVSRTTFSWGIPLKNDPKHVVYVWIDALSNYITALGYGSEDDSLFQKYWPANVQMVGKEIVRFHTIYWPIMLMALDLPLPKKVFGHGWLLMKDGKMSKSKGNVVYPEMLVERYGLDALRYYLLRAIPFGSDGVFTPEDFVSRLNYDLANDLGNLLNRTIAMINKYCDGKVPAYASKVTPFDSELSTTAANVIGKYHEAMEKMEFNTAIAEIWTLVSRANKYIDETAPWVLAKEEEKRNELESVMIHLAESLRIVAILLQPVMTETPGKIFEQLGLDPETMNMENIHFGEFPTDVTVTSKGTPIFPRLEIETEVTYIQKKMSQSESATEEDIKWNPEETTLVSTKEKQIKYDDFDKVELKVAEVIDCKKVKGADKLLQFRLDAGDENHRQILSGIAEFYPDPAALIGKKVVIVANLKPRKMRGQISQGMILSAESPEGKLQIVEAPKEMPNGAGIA

SMILES	MIC (Enterococcus faecalis)	MIC (Staphylococcus aureus [1])	also measured
Oc1cc(NCCCNC2CCNc3c(Cl)cc(Br)cc32)nc2ccccc12 (centres undefined)	< 0.06 µg/mL	< 0.06 µg/mL	
Oc1cc(NCCCNC2COc3c(Cl)cc(Cl)cc32)nc2ccccc12 (centres undefined)	0.125 µg/mL (≈ 0.309 µM)	2 µg/mL (≈ 4.95 µM)	
Oc1cc(NCCCNCc2cc(Cl)cc(Cl)c2)nc2ccccc12	0.13 µg/mL (≈ 0.345 µM)	1 µg/mL (≈ 2.66 µM)	
CCc1cc(Br)cc2c1NCCC2NCCCNc1cc(O)c2ccccc2n1 (centres undefined)	< 0.06 µg/mL	0.25 µg/mL (≈ 0.549 µM)	
CCOc1c(C#N)cc(Br)cc1CNCCCNc1cc(O)c2ccccc2n1	0.25 µg/mL (≈ 0.549 µM)	0.5 µg/mL (≈ 1.1 µM)	
CCOc1c(C)cc(C#N)cc1CNCCCNc1cc(O)c2ccccc2n1	4 µg/mL (≈ 10.2 µM)	8 µg/mL (≈ 20.5 µM)	
CCOc1c(Br)cc([S+](C)[O-])cc1CNCCCNc1cc(O)c2ccccc2n1 (centres undefined)	2 µg/mL (≈ 4.06 µM)	4 µg/mL (≈ 8.12 µM)	
CNc1c(Br)cc(Br)cc1CNCCCNc1cc(O)c2ccccc2n1	0.13 µg/mL (≈ 0.263 µM)	0.5 µg/mL (≈ 1.01 µM)	
Oc1cc(NCCCNCc2cc(Br)cc(I)c2)nc2ccccc12	< 0.06 µg/mL	< 0.06 µg/mL	
CCOc1c(Br)cc(C#N)cc1CNCCCNc1cc(O)c2ccccc2n1	1 µg/mL (≈ 2.2 µM)	4 µg/mL (≈ 8.78 µM)	
CCOc1c(C)cc(Br)cc1CNCCCNc1cc(O)c2ccccc2n1	< 0.06 µg/mL	0.13 µg/mL (≈ 0.293 µM)	
CCOc1c(CNCCCNc2cc(O)c3ccccc3n2)cc(Br)cc1OC	2 µg/mL (≈ 4.34 µM)	4 µg/mL (≈ 8.69 µM)	
CCOc1c(Br)cc(SC)cc1CNCCCNc1cc(O)c2ccccc2n1	< 0.06 µg/mL	< 0.06 µg/mL	MIC90 [2]: 0.5 µg/mL (≈ 1.05 µM); MIC90 (Enterococcus faecium): 0.5 µg/mL (≈ 1.05 µM); MIC90 (Staphylococcus aureus [3]): 0.25 µg/mL (≈ 0.525 µM); MIC90 [4]: 0.25 µg/mL (≈ 0.525 µM)
Oc1cc(NCCCSCc2ccc(Cl)c(Cl)c2)nc2ccccc12	> 64 µg/mL	> 64 µg/mL	
O=c1cc(NCCCNC2CCOc3c(Br)cc(Br)cc32)[nH]c2ccccc12 (centres undefined)	< 0.06 µg/mL	< 0.06 µg/mL	
Oc1cc(NCCCNC2CCNc3c(Br)cc(Br)cc32)nc2ccccc12 (centres undefined)	< 0.06 µg/mL	< 0.06 µg/mL	MIC90 [2]: 0.03 µg/mL (≈ 0.0593 µM); MIC90 (Enterococcus faecium): < 0.016 µg/mL; MIC90 (Staphylococcus aureus [3]): 0.5 µg/mL (≈ 0.988 µM); MIC90 [4]: 0.5 µg/mL (≈ 0.988 µM)
CCOc1c(Br)cc(S(C)(=O)=O)cc1CNCCCNc1cc(O)c2ccccc2n1	8 µg/mL (≈ 15.7 µM)	> 64 µg/mL	
CCOc1c(I)cc(I)cc1CNCCCNc1cc(O)c2ccccc2n1	< 0.06 µg/mL	< 0.06 µg/mL	
O=c1cc(NCCCNCc2ccc(Cl)c(Cl)c2)[nH]c2ccccc12	2 µg/mL (≈ 5.32 µM)	4 µg/mL (≈ 10.6 µM)	
Oc1cc(NCCCNC2CCc3c(Cl)cc(Cl)cc32)nc2ccccc12 (centres undefined)	< 0.06 µg/mL	0.25 µg/mL (≈ 0.621 µM)	

SMILES	MIC (Enterococcus faecalis)	MIC (Staphylococcus aureus [1])	also measured
CCOc1c(Cl)cc(OC)cc1CNCCCNc1cc(O)c2ccccc2n1	< 0.06 µg/mL	0.25 µg/mL (≈ 0.601 µM)	
Nc1c(Br)cc(Br)cc1CNCCCNc1cc(O)c2ccccc2n1	< 0.06 µg/mL	0.13 µg/mL (≈ 0.271 µM)	
O=c1cc(NCCCNC2CCOc3c(Cl)cc(Cl)cc32)[nH]c2ccccc12 (centres undefined)	< 0.06 µg/mL	0.13 µg/mL (≈ 0.311 µM)	
CCNc1c(Br)cc(Br)cc1CNCCCNc1cc(O)c2ccccc2n1	< 0.06 µg/mL	1 µg/mL (≈ 1.97 µM)	
Oc1cc(NCCCNC2CCOc3c(Cl)cc(I)cc32)nc2ccccc12 (centres undefined)	< 0.06 µg/mL	0.13 µg/mL (≈ 0.255 µM)	
CCOc1c(CNCCCNc2cc(=O)c3ccccc3[nH]2)cc(I)cc1C(C)(C)C	8 µg/mL (≈ 15 µM)	32 µg/mL (≈ 60 µM)	
O=c1cc(NCCCNC2CCOc3c(I)cc(Cl)cc32)[nH]c2ccccc12 (centres undefined)	< 0.06 µg/mL	< 0.06 µg/mL	MIC90 (Staphylococcus aureus [3]): 0.25 µg/mL (≈ 0.49 µM); MIC90 [4]: 0.25 µg/mL (≈ 0.49 µM)
CCOc1c(Br)cc(Br)cc1CNCCCNc1cc(O)c2ccccc2n1	< 0.06 µg/mL	< 0.06 µg/mL	
C=CCc1cc(I)cc(CNCCCNc2cc(O)c3ccccc3n2)c1OCC	1 µg/mL (≈ 1.93 µM)	0.13 µg/mL (≈ 0.251 µM)	
CCOc1c(C)cc(SC)cc1CNCCCNc1cc(O)c2ccccc2n1	< 0.06 µg/mL	< 0.06 µg/mL	
CCOc1cc(Br)c(OCC)c(CNCCCNc2cc(O)c3ccccc3n2)c1	4 µg/mL (≈ 8.43 µM)	8 µg/mL (≈ 16.9 µM)	
Oc1cc(NCCCOCc2ccc(Cl)c(Cl)c2)nc2ccccc12	> 64 µg/mL	> 64 µg/mL	
Cc1cc(Br)cc2c1NCCC2NCCCNc1cc(O)c2ccccc2n1 (centres undefined)	< 0.06 µg/mL	0.5 µg/mL (≈ 1.13 µM)	
CCOc1c(C)cc(I)cc1CNCCCNc1cc(O)c2ccccc2n1	< 0.06 µg/mL	< 0.06 µg/mL	
CCOc1c(Br)cc(I)cc1CNCCCNc1cc(O)c2ccccc2n1	< 0.06 µg/mL	< 0.06 µg/mL	
O=C(NCCCNc1cc(O)c2ccccc2n1)c1ccc(Cl)c(Cl)c1	> 64 µg/mL	> 64 µg/mL	
Oc1cc(NCCCNCc2cc(Cl)ccc2Cl)nc2ccccc12	16 µg/mL (≈ 42.5 µM)	4 µg/mL (≈ 10.6 µM)	
CCOC(=O)c1cc(I)cc(CNCCCNc2cc(O)c3ccccc3n2)c1OCC	8 µg/mL (≈ 14.6 µM)	32 µg/mL (≈ 58.2 µM)	
C=CCOc1c(Cl)cc(Cl)cc1CNCCCNc1cc(O)c2ccccc2n1	< 0.06 µg/mL	0.5 µg/mL (≈ 1.16 µM)	
Oc1cc(NCCCNC2CCNc3c(Br)cc(Cl)cc32)nc2ccccc12 (centres undefined)	< 0.06 µg/mL	< 0.06 µg/mL	MIC90 [2]: 0.06 µg/mL (≈ 0.13 µM); MIC90 (Enterococcus faecium): < 0.016 µg/mL; MIC90 (Staphylococcus aureus [3]): 1 µg/mL (≈ 2.17 µM); MIC90 [4]: 1 µg/mL (≈ 2.17 µM)

Now from value to compound, other results behind:

MIC (Enterococcus faecalis)	MIC (Staphylococcus aureus [1])	SMILES	also measured
< 0.06 µg/mL	0.25 µg/mL (≈ 0.625 µM)	CCOc1c(C)cc(Cl)cc1CNCCCNc1cc(O)c2ccccc2n1	
0.13 µg/mL (≈ 0.256 µM)	0.5 µg/mL (≈ 0.985 µM)	CCOc1c(I)cc(OC)cc1CNCCCNc1cc(O)c2ccccc2n1	
2 µg/mL (≈ 3.84 µM)	8 µg/mL (≈ 15.3 µM)	CCOc1c(I)cc(COC)cc1CNCCCNc1cc(O)c2ccccc2n1	
0.25 µg/mL (≈ 0.566 µM)	1 µg/mL (≈ 2.27 µM)	Cc1cc(Br)c2c(c1)C(NCCCNc1cc(O)c3ccccc3n1)CCN2 (centres undefined)	
< 0.06 µg/mL	0.25 µg/mL (≈ 0.498 µM)	CCc1cc(I)c2c(c1)C(NCCCNc1cc(=O)c3ccccc3[nH]1)CCN2 (centres undefined)	MIC90 [2]: 0.25 µg/mL (≈ 0.498 µM); MIC90 (Enterococcus faecium): 0.06 µg/mL (≈ 0.119 µM); MIC90 (Staphylococcus aureus [3]): 1 µg/mL (≈ 1.99 µM); MIC90 [4]: 1 µg/mL (≈ 1.99 µM)
< 0.06 µg/mL	0.13 µg/mL (≈ 0.309 µM)	CCOc1c(Cl)cc(Cl)cc1CNCCCNc1cc(O)c2ccccc2n1	MIC90 [2]: 0.06 µg/mL (≈ 0.143 µM); MIC90 (Enterococcus faecium): < 0.016 µg/mL; MIC90 (Staphylococcus aureus [3]): 2 µg/mL (≈ 4.76 µM); MIC90 [4]: 2 µg/mL (≈ 4.76 µM)
0.5 µg/mL (≈ 1.02 µM)	2 µg/mL (≈ 4.07 µM)	CCOc1c(I)cc(C)cc1CNCCCNc1cc(O)c2ccccc2n1	
8 µg/mL (≈ 15.3 µM)	16 µg/mL (≈ 30.7 µM)	CCOc1c(CNCCCNc2cc(O)c3ccccc3n2)cc(I)cc1COC	
8 µg/mL (≈ 14.6 µM)	32 µg/mL (≈ 58.2 µM)	CCOC(=O)c1cc(I)c(OCC)c(CNCCCNc2cc(O)c3ccccc3n2)c1	
	8 µg/mL (≈ 21.3 µM)	Oc1cc(NCCCNCc2cccc(Cl)c2Cl)nc2ccccc12	MIC [5]: 2 µg/mL (≈ 5.32 µM)
< 0.06 µg/mL	2 µg/mL (≈ 3.94 µM)	CCOc1c(CNCCCNc2cc(O)c3ccccc3n2)cc(I)cc1OC	
< 0.06 µg/mL	< 0.06 µg/mL	CCOc1c(I)cc(Br)cc1CNCCCNc1cc(O)c2ccccc2n1	
32 µg/mL (≈ 63.1 µM)	32 µg/mL (≈ 63.1 µM)	CCOc1c(CO)cc(I)cc1CNCCCNc1cc(O)c2ccccc2n1	
< 0.06 µg/mL	0.13 µg/mL (≈ 0.282 µM)	CCOc1c(Br)cc(OC)cc1CNCCCNc1cc(O)c2ccccc2n1	MIC90 [2]: 0.06 µg/mL (≈ 0.13 µM); MIC90 (Enterococcus faecium): 0.03 µg/mL (≈ 0.0652 µM); MIC90 (Staphylococcus aureus [3]): 2 µg/mL (≈ 4.34 µM); MIC90 [4]: 2 µg/mL (≈ 4.34 µM)
0.25 µg/mL (≈ 0.563 µM)	2 µg/mL (≈ 4.5 µM)	CCOc1c(Br)cc(C)cc1CNCCCNc1cc(O)c2ccccc2n1	
> 64 µg/mL	> 64 µg/mL	CCOc1c(I)cc(CO)cc1CNCCCNc1cc(O)c2ccccc2n1	
< 0.06 µg/mL	0.13 µg/mL (≈ 0.311 µM)	Oc1cc(NCCCNC2CCNc3c(Cl)cc(Cl)cc32)nc2ccccc12 (centres undefined)	
1 µg/mL (≈ 2.1 µM)	0.5 µg/mL (≈ 1.05 µM)	CCOc1c(CNCCCNc2cc(O)c3ccccc3n2)cc(Br)cc1SC	
< 0.06 µg/mL	0.25 µg/mL (≈ 0.6 µM)	Oc1cc(NCCCNC2CCCc3c(Cl)cc(Cl)cc32)nc2ccccc12 (centres undefined)	
> 64 µg/mL	> 64 µg/mL	Oc1cc(NCCCNCc2ccccc2)nc2ccccc12	
< 0.06 µg/mL	0.25 µg/mL (≈ 0.537 µM)	Oc1cc(NCCCNCc2cc(Br)cc(Br)c2)nc2ccccc12	
< 0.06 µg/mL	< 0.06 µg/mL	Oc1cc(NCCCNCc2cc(I)cc(I)c2)nc2ccccc12	
0.25 µg/mL (≈ 0.577 µM)	0.5 µg/mL (≈ 1.15 µM)	CCOc1c(C)cc(C(F)(F)F)cc1CNCCCNc1cc(=O)c2ccccc2[nH]1	
< 0.06 µg/mL	0.25 µg/mL (≈ 0.444 µM)	Oc1cc(NCCCNCc2cc(Br)cc(Br)c2OCC(F)(F)F)nc2ccccc12	
